According to patent publication US20170370908A1, “BRAIN IN VITRO MODELS, DEVICES, SYSTEMS, AND METHODS OF USE THEREOF” (President and Fellows of Harvard College, priority 2014, published 2017):

System: pericytes
Assay: Muscular thin film (MTF) assay of pericyte contraction response to vasoactive agents
Assay type: cell-based
Details: pericytes on muscular thin films treated with vasoactive agent
Source text: FIG. 6 illustrates an assay used to measure stress applied by pericytes treated with the vasoactive agent, endothelin.
FIG. 7 illustrates stress measurement applied by pericytes treated with vasoactive agent endothelin.

## CC[C@H](C)[C@H](NC(=O)[C@H](CC(=O)O)NC(=O)[C@H](CC(C)C)NC(=O)[C@H](Cc1c[nH]cn1)NC(=O)[C@@H]1CSSC[C@H](N)C(=O)N[C@@H](CO)C(=O)N[C@H]2CSSC[C@H](NC(=O)[C@H](CCC(=O)O)NC(=O)[C@H](CCCCN)NC(=O)[C@H](CC(=O)O)NC(=O)[C@H](CCSC)NC(=O)[C@H](CC(C)C)NC(=O)[C@H](CO)NC(=O)[C@H](CO)NC2=O)C(=O)N[C@@H](C(C)C)C(=O)N[C@@H](Cc2ccc(O)cc2)C(=O)N[C@@H](Cc2ccccc2)C(=O)N1)C(=O)N[C@H](C(=O)N[C@@H](Cc1c[nH]c2ccccc12)C(=O)O)[C@@H](C)CC [endothelin]
  contraction response of pericytes (stress applied by pericytes): induces pericyte contraction
